In patent publication US4983593A, “Pharmaceutical composition of dihydropyridine compound” (priority 1988, dated 1991):
Structures can show the parent of a compound that is named as a salt.

Legend:
[1] = Solubility improvement of NZ-105 by pulverizing or by formulating other polymers; format: physicochemical; details: pulverizing crystals
Source text: This entailed larger size tablets. […] This also entailed larger size tablets.

[2] = background; cited from earlier work
[3] = background; cited from earlier work; remark: listed apart in the source

Q: With `CC1=C(C(=O)OCCN(Cc2ccccc2)c2ccccc2)C(c2cccc([N+](=O)[O-])c2)C(P2(=O)OCC(C)(C)CO2)=C(C)N1` (stereo not drawn) [NZ-105, 5-(5,5-dimethyl-1,3,2-dioxaphosphorinane-2-yl)-1,4-dihydro-2,6-dimethyl-4-(3-nitrophenyl)-3-pyridine carboxylic acid 2-(phenyl(phenylmethyl)amino) ethyl ester P-oxide hydrochlorideethanol] as the molecule, how does the “Improvement in solubility (in words)” value [1] read?
A: did not result in an improvement in the solubility of NZ-105 of a degree to promote its bioavailability

Q: For `COC(=O)C1=C(C)NC(C)=C(C(=O)OCCN(C)Cc2ccccc2)C1c1cccc([N+](=O)[O-])c1` (stereo not drawn) [Nicardipine], which “Solubility in water (in words)” value [2] is on record?
A: very poor solubility in water

Q: And the “Absorption through gastrointestinal tracts (in words)” value [3]?
A: can not be absorbed through gastrointestinal tracts in a sufficient amount
